{"source": "patent US20090325262A1", "about": "“Immobilization of biological molecules onto surfaces coated with monolayers” (SURFACE LOGIX, INC., priority 2001, published 2009)", "key": {"[1]": {"test": "SPR of immobilization of cutinase to SAM terminated in phosphonate binding partner", "settings": "PBS pH 7.4; not removed by SDS 0.5 mg/mL", "procedure": "A self-assembled monolayer (SAM) terminated in a phosphonate binding partner moiety was prepared. The ligand was present at a low density mixed with tri(ethylene glycol) groups, which resist non-specific protein adsorption. The immobilization of cutinase to the monolayer was characterized by SPR spectroscopy. Phosphate buffered saline (pH 7.4) was flowed over the monolayer for 2 min to establish a baseline, followed by a solution of protein in the same buffer for 10 min to observe binding. Finally, the protein solution was replaced with buffer for 6 min to quantitate the amount of protein that was irreversibly immobilized."}, "[2]": {"target": "T1, β1,4-galactosyltransferase (Bos taurus, UniProt P08037)", "T1 sequence (P08037 1-402)": "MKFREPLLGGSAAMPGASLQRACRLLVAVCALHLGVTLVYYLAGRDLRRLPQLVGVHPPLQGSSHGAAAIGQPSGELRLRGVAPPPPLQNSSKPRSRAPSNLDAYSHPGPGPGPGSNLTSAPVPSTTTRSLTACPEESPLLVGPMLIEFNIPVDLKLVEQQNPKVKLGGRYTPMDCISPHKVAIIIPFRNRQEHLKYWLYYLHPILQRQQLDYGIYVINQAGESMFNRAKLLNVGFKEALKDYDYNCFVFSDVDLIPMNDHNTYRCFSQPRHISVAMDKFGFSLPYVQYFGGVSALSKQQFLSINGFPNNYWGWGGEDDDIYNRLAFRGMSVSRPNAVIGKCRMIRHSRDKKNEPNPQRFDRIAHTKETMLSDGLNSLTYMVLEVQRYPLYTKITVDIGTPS", "test": "Glycosyltransferase assay on immobilized carbohydrates (UDP [14C] galactose, phosphorimaging)", "type": "biochemical, bovine", "settings": "three immobilized carbohydrate substrates; UDP [^14C] galactose 3.5 μM", "procedure": "FIG. 12 depicts the results of a Glycosyltransferase assay. The surface comprises three different carbohydrate substrates defined by columns and a control column (no substrate). Each row was reacted with a different concentration of β1,4-galactosyltransferase and a constant concentration of sugar donor (UDP [^14C] galactose, 3.5 μM). The reaction was detected by phosphorimaging.\nReferring to FIG. 12, in the glycosyltransferase assay, various carbohydrates were immobilized using a thiol chemical tag to bond to a monolayer thiolate bearing a maleimide group. A glycosyltransferase enzyme was added to the immobilized carbohydrates. The ability of the enzyme to add radioactively labeled sugars to the immobilized carbohydrates was measured. In the glycosyltransferase assay the enzyme that was employed is bovine recombinant β1,4-galactosyltransferase. Preferably, the enzyme is at a concentration of about 10 pM to about 100 uM. More preferably, the enzyme is at a concentration of about 100 pM to about 1 uM.\nDetection of glycosylation of the immobilized carbohydrate substrates on the base plate was performed radiometrically. The incorporation of ^14C was quantified by exposing a storage phosphor screen to the plate and then imaging it on a Variable Mode Imager (Typhoon 8600; Molecular Dynamics, Sunnyvale, Calif.). […]"}, "streptavidin": {"target": "streptavidin (Streptomyces avidinii, UniProt P22629)", "test": "SPR of streptavidin binding to maleimide SAM treated with biotinylated model peptides", "settings": "SAM presenting maleimide at 2%, then streptavidin", "source_text": "Michael acceptor-derivatized surfaces like that depicted in FIG. 1 are well adapted for selectively immobilizing and orienting functional organic molecules for such uses as biosensors, high throughput assays, binding assays, enzymatic assays and cell cultures. […] Surface binding was detected using biotinylated, cysteine-containing peptides and streptavidin. SAMs presenting the maleimide group at a density of 2% were applied to gold-coated coverslips according to the Examples. The SAM coated coverslips were each treated with solutions containing various reactive molecules dissolved in phosphate buffer (pH 6), and the reactivity of the surface was characterized by flowing the protein streptavidin, which selectively binds biotin, over the SAM. Streptavidin binding was quantitated by surface plasmon resonance.\nReferring to FIG. 3, sensorgram (A), the SAM-coated coverslip was treated with a solution of the model biotinylated peptide biotin-NH-Arg-Asp-Cys-CONH2 (1.2 mM) for 12 minutes. 2280 RU of streptavidin binding was observed. Sensorgram (B) was obtained using a solution containing a mixture of the model peptide (0.6 mM) and lysine (16 mM). […]\nSPR was performed with a Biacore 3000 instrument. Gold-coated glass microscope cover glass presenting SAMs to be analyzed were mounted in SPR cartridges. […]"}, "[3]": {"test": "SPR of biospecific-covalent attachment of cutinase-fusion protein to PNPP-terminated surfaces", "type": "binding", "procedure": "A gold chip that presents 1.5% maleimide groups in a background of EG3 was exposed to a 5 mM methanolic solution of (8-mercapto-octyl)-phosphonic acid ethyl ester 4-nitro-phenyl ester—the bifunctional molecule (compound 5; HS-PNPP)—for 1 hour. During this process the thiol group of HS-PNPP reacts with the maleimide groups at the surface and results in 1.5% of a monolayer of the PNPP ligand being presented at the surface.\nThe chip created above was then loaded into the SPR machine that contacts a microfluidic manifold to the gold chip to allow different solutions to be delivered to the surface in up to 4 flow channels. The following fluidic protocol was then applied to the surface and the SPR signal—which measures the mass of protein that adsorbs to the surface—was measured as a function of time:\nt=0 to 300 s. Flow channels 1-3 (Fc=1 to 3) were all exposed to 20 mM tris (pH 7.4) buffer t=300 to 1500 s. Fc=1 to 3 were then exposed to 3 different solutions: Fc=1: 500 ug/mL fibrinogen in 20 mM tris (pH 7.4) buffer Fc=2: 40 microM of cutinase fused to hexahistidine (cutinase-his6) in 20 mM tris buffer Fc=3: 40 microM of cutinase-his6 pre-mixed with 100 microM of PNPP t=1500 to 2250 s. Fc=1 to 3 were all exposed to 20 mM tris (pH 7.4) buffer t=2250 to 2850 s. Fc=1 to 3 were all exposed to 8 mM SDS in 20 mM tris (pH 7.4) buffer t>2850 s. Fc=1 to 3 were all exposed to 20 mM tris (pH 7.4) buffer"}, "[4]": {"test": "SPR of protein adsorption on biotin-presenting maleimide/EG3 mixed SAM surface (specific binding and NSB)", "procedure": "FIG. 4 is a surface plasmon resonance sensorgram of a SAM presenting maleimide at a density of 2%. The SAM-coated coverslip was treated with the biotinylated, thiol-containing, model peptide biotin-NH-Arg-Asp-Cys-CONH2 (1.2 mM) for 12 minutes. Afterwards, a solution of the “sticky” protein fibrinogen (0.5 mg/mL) was flowed over the surface. Only 60 RU of adsorption was observed. Another coverslip was treated with the model peptide solution and then treated with streptavidin that had been pre-incubated with biotin.\nA gold chip that presents 1.5% maleimide groups in a background of EG3 was loaded into an SPR machine (Biacore 3000). Two flow channels over this chip were simultaneously exposed to cysteine-biotin that reacts with the maleinide in order to present 1.5% biotin at the surface. Subsequently, one channel was exposed to 70 ug/mL of streptavidin and then one channel was exposed to 500 ug/mL of fibrinogen.\nSPR was performed with a Biacore 3000 instrument. Gold-coated glass microscope cover glass presenting SAMs to be analyzed were mounted in SPR cartridges. All experiments used a flow rate of 10 μL/min."}}, "data": [{"substance": "Cutinase: recombinant Fusarium solani pisi cutinase expressed in E. coli", "values": [{"measurement": "binding to phosphonate monolayer", "setting": "[1]", "value": "bound irreversibly to the surface"}]}, {"substance": "GlcNAc", "values": [{"measurement": "substrate for the enzyme", "setting": "[2]", "value": "only the immobilized GlcNAc was a substrate"}]}, {"substance": "biotin-NH-Arg-Asp-Cys-CONH2", "values": [{"measurement": "streptavidin binding", "setting": "streptavidin; peptide 1.2 mM for 12 minutes", "value": 2280, "unit": "RU"}]}, {"substance": "biotin-NH-Arg-Asp-Lys-CONH2", "values": [{"measurement": "streptavidin binding", "setting": "streptavidin; peptide 4 mM for 12 minutes", "value": "no streptavidin binding"}]}, {"substance": "cutinase-his6: cutinase fused to hexahistidine", "values": [{"measurement": "protein immobilized", "setting": "[3]; Fc=2, 40 microM in 20 mM tris buffer", "value": 1150, "unit": "RU"}, {"measurement": "protein immobilized after SDS wash", "setting": "[3]; Fc=2, after 8 mM SDS wash", "value": 1080, "unit": "RU"}, {"measurement": "adsorption after preincubation with PNPP", "setting": "[3]; Fc=3, 40 microM pre-mixed with 100 microM PNPP", "value": 30, "unit": "RU"}]}, {"substance": "fibrinogen", "values": [{"measurement": "signal change caused by adsorption (NSB)", "setting": "[4]; 1.5% maleimide in EG3 reacted with cysteine-biotin, 500 ug/mL fibrinogen", "value": 90, "unit": "RU"}, {"measurement": "adsorption (non-specific)", "setting": "[4]; SAM 2% maleimide treated with biotin-NH-Arg-Asp-Cys-CONH2, fibrinogen 0.5 mg/mL", "value": 60, "unit": "RU"}, {"measurement": "non-specific binding to PNPP surface", "setting": "[3]; Fc=1, 500 ug/mL fibrinogen", "value": "did not stick to this surface"}]}, {"substance": "streptavidin: protein which selectively binds biotin", "values": [{"measurement": "signal change caused by adsorption", "setting": "[4]; 1.5% maleimide in EG3 reacted with cysteine-biotin, 70 ug/mL streptavidin", "value": 2100, "unit": "RU"}]}]}
